#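 A five-concentration, 48-hour dose response in 96-well plates underlies each endpoint, interpolated linearly between surrounding concentrations. At the GI50, growth is halved. At the TGI there is no net growth.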
# System: RPMI-8226 leukemia
# Experiment: NCI tumour cell line growth inhibition, 48 h
Structure (SMILES),GI50,TGI
COc1cc(/C=C2\CCCC3=C2NC(C)=NC3c2cc(OC)c(OC)c(OC)c2)cc(OC)c1OC (stereo not drawn),536 nM,4.67 µM
Cc1cc(O)c(C(C)(C)C)cc1Sc1cc(C(C)(C)C)c(O)cc1C,2970 nM,15.8 µM
O=C1CCCCC2N(C(c3ccccc3)c3ccccc3)CC[C@@]12c1ccccc1 (mixture of isomers),–,9.31 µM
O=C1NN(C2=NNC3(C(=O)N2)c2ccccc2-c2ccccc23)C(c2ccccc2)=N/C1=C/c1ccc(O)cc1,70.6 µg/mL,> 150 µg/mL
CCOC(=O)C(O)(NC(=O)c1ccc(F)cc1)C(F)(F)F (stereo not drawn),–,> 100 µM
Cc1nc2ccccc2n1C(=O)c1c(F)c(F)c(F)c(F)c1F,–,38.3 µM
Clc1ccccc1/C=C/c1cscn1,–,> 100 µM

# System: SK-MEL-28 melanoma
# Experiment: NCI tumour cell line growth inhibition, 48 h
Structure (SMILES),TGI,GI50
O=C(O)Cc1cc(O)c(CC(=O)O)cc1O,> 100 µM,–
N#Cc1c(Cl)c2cc([N+](=O)[O-])ccc2n2c1nc1ccccc12,30 µM,–
O=S1(=O)N(CCNc2nccc(-c3c(-c4cccc(O)c4)nc4sccn34)n2)CCN1Cc1ccccc1,> 50 µM,417 nM
C=C(C)C(=O)OC1CCC2(C)C(CCC3C2CCC2(C)C(c4ccc(=O)oc4)CC4OC432)C1 (stereo not drawn),44.5 µM,–
O=C(N/N=C\c1cccc(O)c1)c1ccncc1,> 100 µM,–
Cc1cc(O)c(C(C)(C)C)cc1Sc1cc(C(C)(C)C)c(O)cc1C,3.09 µM,1630 nM
O=C1CCCCC2N(C(c3ccccc3)c3ccccc3)CC[C@@]12c1ccccc1 (mixture of isomers),> 10 µM,–
O=C1NN(C2=NNC3(C(=O)N2)c2ccccc2-c2ccccc23)C(c2ccccc2)=N/C1=C/c1ccc(O)cc1,> 150 µg/mL,83 µg/mL
CCOC(=O)C(O)(NC(=O)c1ccc(F)cc1)C(F)(F)F (stereo not drawn),> 100 µM,–
Cc1nc2ccccc2n1C(=O)c1c(F)c(F)c(F)c(F)c1F,82.9 µM,–
Clc1ccccc1/C=C/c1cscn1,> 100 µM,–

# System: T-47D breast
# Experiment: NCI tumour cell line growth inhibition, 48 h
Structure (SMILES),TGI,GI50
O=C(O)Cc1cc(O)c(CC(=O)O)cc1O,> 100 µM,–
N#Cc1c(Cl)c2cc([N+](=O)[O-])ccc2n2c1nc1ccccc12,4.8 µM,–
O=S1(=O)N(CCNc2nccc(-c3c(-c4cccc(O)c4)nc4sccn34)n2)CCN1Cc1ccccc1,27 µM,5.16 µM
COc1cc(/C=C2\CCCC3=C2NC(C)=NC3c2cc(OC)c(OC)c(OC)c2)cc(OC)c1OC (stereo not drawn),> 100 µM,3.25 µM
O=C(N/N=C\c1cccc(O)c1)c1ccncc1,> 100 µM,–
Cc1cc(O)c(C(C)(C)C)cc1Sc1cc(C(C)(C)C)c(O)cc1C,13.4 µM,2.09 µM
O=C1NN(C2=NNC3(C(=O)N2)c2ccccc2-c2ccccc23)C(c2ccccc2)=N/C1=C/c1ccc(O)cc1,> 150 µg/mL,27 µg/mL
CCOC(=O)C(O)(NC(=O)c1ccc(F)cc1)C(F)(F)F (stereo not drawn),> 100 µM,–
Cc1nc2ccccc2n1C(=O)c1c(F)c(F)c(F)c(F)c1F,> 100 µM,–

# System: TK-10 renal
# Experiment: NCI tumour cell line growth inhibition, 48 h
Structure (SMILES),TGI,GI50
O=C(O)Cc1cc(O)c(CC(=O)O)cc1O,> 100 µM,–
N#Cc1c(Cl)c2cc([N+](=O)[O-])ccc2n2c1nc1ccccc12,8.95 µM,–
C=CC1(C)CCC2=C(CCC3C(C)(C(=O)OC)CCCC23C)C1=O (stereo not drawn),56.4 µM,–
O=S1(=O)N(CCNc2nccc(-c3c(-c4cccc(O)c4)nc4sccn34)n2)CCN1Cc1ccccc1,29.2 µM,4.07 µM
COc1cc(/C=C2\CCCC3=C2NC(C)=NC3c2cc(OC)c(OC)c(OC)c2)cc(OC)c1OC (stereo not drawn),> 100 µM,4.33 µM
O=C(N/N=C\c1cccc(O)c1)c1ccncc1,> 100 µM,–
Cc1cc(O)c(C(C)(C)C)cc1Sc1cc(C(C)(C)C)c(O)cc1C,6.22 µM,2.54 µM
O=C1CCCCC2N(C(c3ccccc3)c3ccccc3)CC[C@@]12c1ccccc1 (mixture of isomers),> 10 µM,–
O=C1NN(C2=NNC3(C(=O)N2)c2ccccc2-c2ccccc23)C(c2ccccc2)=N/C1=C/c1ccc(O)cc1,71.9 µg/mL,39.1 µg/mL
CCOC(=O)C(O)(NC(=O)c1ccc(F)cc1)C(F)(F)F (stereo not drawn),> 100 µM,–
Cc1nc2ccccc2n1C(=O)c1c(F)c(F)c(F)c(F)c1F,66.3 µM,–
Clc1ccccc1/C=C/c1cscn1,> 100 µM,–

# System: UACC-257 melanoma
# Experiment: NCI tumour cell line growth inhibition, 48 h
Structure (SMILES),TGI,GI50
O=C(O)Cc1cc(O)c(CC(=O)O)cc1O,> 100 µM,–
N#Cc1c(Cl)c2cc([N+](=O)[O-])ccc2n2c1nc1ccccc12,56 µM,–
C=CC1(C)CCC2=C(CCC3C(C)(C(=O)OC)CCCC23C)C1=O (stereo not drawn),55.9 µM,–
O=S1(=O)N(CCNc2nccc(-c3c(-c4cccc(O)c4)nc4sccn34)n2)CCN1Cc1ccccc1,43.1 µM,996 nM
C=C(C)C(=O)OC1CCC2(C)C(CCC3C2CCC2(C)C(c4ccc(=O)oc4)CC4OC432)C1 (stereo not drawn),17.2 µM,–
O=C(N/N=C\c1cccc(O)c1)c1ccncc1,> 100 µM,–
Cc1cc(O)c(C(C)(C)C)cc1Sc1cc(C(C)(C)C)c(O)cc1C,6.89 µM,2280 nM
O=C1CCCCC2N(C(c3ccccc3)c3ccccc3)CC[C@@]12c1ccccc1 (mixture of isomers),> 10 µM,–
O=C1NN(C2=NNC3(C(=O)N2)c2ccccc2-c2ccccc23)C(c2ccccc2)=N/C1=C/c1ccc(O)cc1,> 150 µg/mL,113 µg/mL
CCOC(=O)C(O)(NC(=O)c1ccc(F)cc1)C(F)(F)F (stereo not drawn),> 100 µM,–
Cc1nc2ccccc2n1C(=O)c1c(F)c(F)c(F)c(F)c1F,39.1 µM,–
Clc1ccccc1/C=C/c1cscn1,> 100 µM,–
